The values below come from patent publication US6908908B2, “Biologically active 4H-benzo [1,4] oxazin-3-ones” (Ortho-McNeil Pharmaceutical, Inc., priority 2000, dated 2005).

The structures appear in SMILES notation.

One assay addresses T1, PPAR γ (Homo sapiens, UniProt P37231).
T1 construct: Following the challenge of the preadipocytes, cells may be lysed with lysis buffer; endogenous in cells; host or cells: preadipocytes
T1 sequence (P37231 1-505): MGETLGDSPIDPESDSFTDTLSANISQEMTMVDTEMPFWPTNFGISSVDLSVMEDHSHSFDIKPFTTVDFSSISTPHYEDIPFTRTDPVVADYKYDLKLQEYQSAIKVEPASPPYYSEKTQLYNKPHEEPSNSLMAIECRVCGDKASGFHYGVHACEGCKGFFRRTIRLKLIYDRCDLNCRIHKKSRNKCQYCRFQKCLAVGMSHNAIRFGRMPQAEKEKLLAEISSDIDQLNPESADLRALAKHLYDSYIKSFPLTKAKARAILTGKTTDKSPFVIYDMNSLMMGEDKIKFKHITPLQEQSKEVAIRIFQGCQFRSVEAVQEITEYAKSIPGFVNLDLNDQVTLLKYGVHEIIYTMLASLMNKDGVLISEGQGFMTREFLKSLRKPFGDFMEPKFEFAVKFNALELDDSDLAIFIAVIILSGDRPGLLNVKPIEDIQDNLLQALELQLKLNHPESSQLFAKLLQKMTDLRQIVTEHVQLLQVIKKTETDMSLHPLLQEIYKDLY
Description: aP2 Assay for Agonist (induction of aP2 mRNA production). As to Agonist Intrinsic Activity: test concentration or dose not given here. Format: cell-based. The note with it: Table 1; fold increase over vehicle in induction of aP2 mRNA production.
For the compound `COC(=O)Cc1ccccc1OCCC1Oc2ccccc2N(c2ccc(Cl)c(Cl)c2)C1=O` (stereo not shown) [Compound 118], the “Agonist Intrinsic Activity” value is listed as 0.9.

As for `CC(C)(CN)CCCCN1C(=O)C(CCOc2ccccc2CC(=O)O)Oc2ccccc21` (stereo not shown) [Compound 96], the “Agonist Intrinsic Activity” value is recorded as 27.5.

For the compound `O=C(O)Cc1ccccc1OCCC1Oc2ccccc2N(CCCCCCF)C1=O` (single isomer, unassigned) [Compound 92], the “Agonist Intrinsic Activity” value was 44.8.

As for `COC(=O)Cc1ccccc1OCCC1Oc2ccccc2N(CC(=O)OC)C1=O` (stereo not shown) [Compound 22], the “Agonist Intrinsic Activity” value was 7.2.

`CCCNC(=O)CN1C(=O)C(CCOc2ccccc2CC(=O)O)Oc2ccccc21` (stereo not shown) [Compound 122]: the “Agonist Intrinsic Activity” value came to 40.83.

Regarding `CCCCCCCCCCN1C(=O)C(CCOc2ccccc2C(F)(F)F)Oc2ccccc21` (stereo not shown) [Compound 17], the “Agonist Intrinsic Activity” value is given as 1.1.

Take `O=C(O)Cc1ccccc1OCCC1Oc2ccccc2N(CCC2CCCC2)C1=O` (stereo not shown) [Compound 68]: the “Agonist Intrinsic Activity” value is 43.2.

`O=C([O-])CCc1cccc(OCCC2Oc3ccccc3N(Cc3cccc(C(F)(F)F)c3)C2=O)c1.[Na+]` (stereo not shown) [Compound 36]: the “Agonist Intrinsic Activity” value is listed as 11.1.

As for `O=C([O-])Cc1cccc(OCCC2Oc3ccccc3N(Cc3cccc(C(F)(F)F)c3)C2=O)c1.[Na+]` (stereo not shown) [Compound 34], the “Agonist Intrinsic Activity” value is recorded as 10.4.

Consider `O=C(O)Cc1ccccc1OCCC1Oc2ccccc2N(Cc2ccc(C(F)(F)F)cc2)C1=O` (stereo not shown) [Compound 38], for which the “Agonist Intrinsic Activity” value is 38.7.

Consider `CCCCCCCCCN1C(=O)C(CCOc2ccccc2CC(=O)OC)Oc2ccccc21` (stereo not shown) [Compound 54], for which the “Agonist Intrinsic Activity” value came out at 0.9.

In the case of `O=C(O)Cc1ccccc1OCCC1Oc2ccccc2N(CCO)C1=O` (stereo not shown) [Compound 25], the “Agonist Intrinsic Activity” value was 3.5.

Turning to `O=C(O)Cc1ccccc1OCCC1Oc2ccccc2N(CCCCCCCO)C1=O` (stereo not shown) [Compound 112], the “Agonist Intrinsic Activity” value stood at 74.5.

`NC(=O)CCCCCN1C(=O)C(CCOc2ccccc2CC(=O)O)Oc2ccccc21` (stereo not shown) [Compound 98, Benzeneacetic acid, 2-[2-[4-(6-amino-6-oxohexyl)-3,4-dihydro-3-oxo-2H-1,4-benzoxazin-2-yl]ethoxy]-]: the “Agonist Intrinsic Activity” value was 28.

As for `C#CCN1C(=O)C(CCOc2ccccc2CC(=O)OC)Oc2ccccc21` (stereo not shown) [Compound 49], the “Agonist Intrinsic Activity” value is reported as 5.7.

As to `CCCOCCN1C(=O)C(CCOc2ccccc2C(F)(F)F)Oc2ccccc21` (stereo not shown) [Compound 20], the “Agonist Intrinsic Activity” value stood at 1.2.

For the compound `CC(C)CCCCN1C(=O)C(CCOc2ccccc2CC(=O)O)Oc2ccccc21` (stereo not shown) [Compound 72], the “Agonist Intrinsic Activity” value was 32.

For the compound `CC(C)(CCCCN1C(=O)C(CCOc2ccccc2CC(=O)O)Oc2ccccc21)C(=O)O` (stereo not shown) [Compound 102], the “Agonist Intrinsic Activity” value is listed as 4.1.

Take `O=C(O)Cc1ccccc1OCCC1Oc2ccccc2N(CCCCCCF)C1=O` (single isomer, unassigned) [Compound 93]: the “Agonist Intrinsic Activity” value is listed as 53.1.

Regarding `O=C(O)Cc1ccccc1OCCC1Oc2ccccc2N(CCCCCCO)C1=O` (stereo not shown) [Compound 95], the “Agonist Intrinsic Activity” value turned out to be 36.9.

For `Cc1cccc(CN2C(=O)C(CCOc3ccccc3C(F)(F)F)Oc3ccccc32)c1` (stereo not shown) [Compound 2], the “Agonist Intrinsic Activity” value was 1.2.

`O=C(O)Cc1ccccc1OCCC1Oc2ccccc2N(CC(=O)O)C1=O` (stereo not shown) [Compound 46]: the “Agonist Intrinsic Activity” value is given as 2.

`CC(=O)CCCCN1C(=O)C(CCOc2ccccc2CC(=O)O)Oc2ccccc21` (stereo not shown) [Compound 78, Benzeneacetic acid, 2-[2-[3,4-dihydro-3-oxo-4-(5-oxohexyl)-2H-1,4-benzoxazin-2-yl]ethoxy]-]: the “Agonist Intrinsic Activity” value came to 11.1.

Turning to `O=C(O)Cc1ccccc1OCCC1Oc2ccccc2N(Cc2cc(C(F)(F)F)cc(C(F)(F)F)c2)C1=O` (stereo not shown) [Compound 40], the “Agonist Intrinsic Activity” value worked out at 6.7.

For `O=C(O)CCCCCN1C(=O)C(CCOc2ccccc2CC(=O)O)Oc2ccccc21` (stereo not shown) [Compound 101, 2H-1,4-Benzoxazine-4-hexanoic acid, 2-[2-[2-(carboxymethyl)phenoxy]ethyl]-3,4-dihydro-3-oxo-], the “Agonist Intrinsic Activity” value is on record as 3.0.

On to `CC(C)(O)CCCCN1C(=O)C(CCOc2ccccc2CC(=O)O)Oc2ccccc21` (stereo not shown) [Compound 84], for which the “Agonist Intrinsic Activity” value came to 3.5.

Turning to `O=C(O)Cc1ccccc1OCCC1Oc2ccccc2N(CCCC2CCCC2)C1=O` (stereo not shown) [Compound 70], the “Agonist Intrinsic Activity” value is on record as 57.9.

For the compound `COC(=O)Cc1ccccc1OCCC1Oc2ccccc2N(CCOC(C)=O)C1=O` (stereo not shown) [Compound 24], the “Agonist Intrinsic Activity” value was 1.3.

Regarding `CC(=O)CCCCCN1C(=O)C(CCOc2ccccc2CC(=O)O)Oc2ccccc21` (stereo not shown) [Compound 108], the “Agonist Intrinsic Activity” value turned out to be 37.3.

With `CON=C(C)CCCCN1C(=O)C(CCOc2ccccc2CC(=O)O)Oc2ccccc21` (stereo not shown) [Compound 80], the “Agonist Intrinsic Activity” value was 2.8.

As for `O=C(O)Cc1ccccc1OCCC1Oc2ccccc2N(CC(=O)O)C1=O` (stereo not shown) [Compound 23], the “Agonist Intrinsic Activity” value is listed as 0.8.

For the compound `CC(CCN1C(=O)C(CCOc2ccccc2CC(=O)O)Oc2ccccc21)CC(C)(C)C` (stereo not shown) [Compound 76], the “Agonist Intrinsic Activity” value stood at 28.7.

`COC(=O)c1ccccc1OCCC1Oc2ccccc2N(Cc2ccccc2)C1=O` (stereo not shown) [Compound 4]: the “Agonist Intrinsic Activity” value is on record as 1.0.

With `CCOCCCN1C(=O)C(CCOc2ccccc2C(F)(F)F)Oc2ccccc21` (stereo not shown) [Compound 19], the “Agonist Intrinsic Activity” value was determined as 1.4.

With `COC(=O)Cc1ccccc1OCCC1Oc2ccccc2N(Cc2cccc(C(F)(F)F)c2)C1=O` (stereo not shown) [Compound 27], the “Agonist Intrinsic Activity” value stood at 0.8.

Take `O=C1C(CCOc2ccccc2C(F)(F)F)Oc2ccccc2N1Cc1ccc(Cl)c(Cl)c1` (stereo not shown) [Compound 8]: the “Agonist Intrinsic Activity” value turned out to be 3.3.

Turning to `CNC(=O)CCCN1C(=O)C(CCOc2ccccc2CC(=O)O)Oc2ccccc21` (stereo not shown) [Compound 124], the “Agonist Intrinsic Activity” value was 4.00.

`COCCCCN1C(=O)C(CCOc2ccccc2CC(=O)O)Oc2ccccc21` (stereo not shown) [Compound 114]: the “Agonist Intrinsic Activity” value is 50.7.

As to `CCCCCCCN1C(=O)C(CCOc2ccccc2CC(=O)O)Oc2ccccc21` (stereo not shown) [Compound 51], the “Agonist Intrinsic Activity” value is 28.6.

With `CC(=O)NC(C)CCCCN1C(=O)C(CCOc2ccccc2CC(=O)O)Oc2ccccc21` (stereo not shown) [Compound 85], the “Agonist Intrinsic Activity” value came out at 24.

`CC(F)(F)CCCCN1C(=O)C(CCOc2ccccc2CC(=O)O)Oc2ccccc21` (single isomer, unassigned) [Compound 89]: the “Agonist Intrinsic Activity” value was 42.0.

As to `O=C(O)Cc1ccccc1OCCC1Oc2ccccc2N(CCO)C1=O` (stereo not shown) [Compound 48], the “Agonist Intrinsic Activity” value came out at 8.

Regarding `COC(=O)CCc1ccccc1OCCC1Oc2ccccc2N(Cc2cccc(C(F)(F)F)c2)C1=O` (stereo not shown) [Compound 29], the “Agonist Intrinsic Activity” value is on record as 0.8.

Staying with this assay, now noted: Table 2; fold increase over vehicle in induction of aP2 mRNA production.
Turning to `CCCCCCN1C(=O)C(C)(CCOc2ccccc2CC(=O)O)Oc2ccccc21` (stereo not shown) [Compound 128, Benzeneacetic acid, 2-[2-(4-hexyl-3,4-dihydro-2-methyl-3-oxo-2H-1,4-benzoxazin-2-yl)ethoxy]-], the “Agonist Intrinsic Activity” value was 2.5.

Staying with this assay, now noted: Table 3 (stereoisomers); fold increase over vehicle in induction of aP2 mRNA production.
As for `CC1(CCOc2ccccc2CC(=O)O)Oc2ccccc2N(CCCCCCF)C1=O` (stereo not shown) [Compound 131], the “PPAR γ Agonist Intrinsic Activity” value is recorded as 36.4.

Turning to `CCCCCCN1C(=O)C(CCOc2ccc(OC(C)(C)C(=O)O)cc2)Oc2ccccc21` (stereo not shown) [Compound 129], the “PPAR γ Agonist Intrinsic Activity” value was determined as 12.62.
